Results taken from paper PMC7932537, “Quantitative profiling of protease specificity” (PLoS Computational Biology, 2021).

Key:
MMP-9 = MMP-9 (Homo sapiens, UniProt P14780); assay: K(obs) of individual phage substrates (set of 1369); assay type: biochemical; settings: MMP9, individual phage substrates, set of 1369 peptides
MMP-2 = molecular target: T1, MMP-2 (Homo sapiens, UniProt P08253); assay: as above; assay type: biochemical; settings: MMP2
T1 sequence (P08253 110-660): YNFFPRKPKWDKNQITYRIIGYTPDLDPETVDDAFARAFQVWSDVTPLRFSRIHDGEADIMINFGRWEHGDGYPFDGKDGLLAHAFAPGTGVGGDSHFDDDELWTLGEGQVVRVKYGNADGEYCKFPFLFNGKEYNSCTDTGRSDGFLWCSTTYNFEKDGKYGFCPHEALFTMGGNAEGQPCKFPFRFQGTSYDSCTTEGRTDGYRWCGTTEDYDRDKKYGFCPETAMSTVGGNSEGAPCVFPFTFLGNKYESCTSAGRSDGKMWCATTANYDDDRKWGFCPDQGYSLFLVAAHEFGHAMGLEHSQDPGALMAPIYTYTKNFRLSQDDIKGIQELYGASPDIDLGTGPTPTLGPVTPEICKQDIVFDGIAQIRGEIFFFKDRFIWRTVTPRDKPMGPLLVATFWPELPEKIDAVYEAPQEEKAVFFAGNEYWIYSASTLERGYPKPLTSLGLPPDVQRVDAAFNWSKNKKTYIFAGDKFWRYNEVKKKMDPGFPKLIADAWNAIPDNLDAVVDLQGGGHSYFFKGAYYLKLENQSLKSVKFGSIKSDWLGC

[1] = dash in sequence marks cleavage position
[2] = individual phage substrate from the set of 1369 peptides, cleavage position marked by the dash in the sequence
[3] = '-' marks the cleavage position (P1-P1')
[4] = individual phage substrates, set of 1369 peptides, cleavage position marked by '-' in the sequence

MMP-9, sequence (P14780 94-707): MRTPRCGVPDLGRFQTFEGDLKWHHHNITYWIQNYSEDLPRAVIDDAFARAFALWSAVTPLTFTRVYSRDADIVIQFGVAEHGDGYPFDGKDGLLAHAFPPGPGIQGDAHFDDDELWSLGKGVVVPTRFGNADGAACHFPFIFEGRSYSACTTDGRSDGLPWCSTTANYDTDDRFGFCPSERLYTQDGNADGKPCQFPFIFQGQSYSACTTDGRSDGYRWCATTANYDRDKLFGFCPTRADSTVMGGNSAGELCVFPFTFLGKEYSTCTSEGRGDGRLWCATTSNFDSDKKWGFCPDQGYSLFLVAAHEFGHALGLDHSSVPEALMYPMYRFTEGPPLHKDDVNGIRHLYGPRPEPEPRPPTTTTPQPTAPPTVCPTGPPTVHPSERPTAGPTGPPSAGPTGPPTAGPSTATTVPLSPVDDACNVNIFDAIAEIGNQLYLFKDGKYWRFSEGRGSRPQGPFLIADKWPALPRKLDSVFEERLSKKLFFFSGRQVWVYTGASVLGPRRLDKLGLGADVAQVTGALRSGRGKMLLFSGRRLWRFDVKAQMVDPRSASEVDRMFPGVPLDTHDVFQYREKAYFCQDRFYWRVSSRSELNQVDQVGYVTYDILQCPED

## GGSGS-LNQRL
MMP-9; [1]
  Kobs: 0 M⁻¹ s⁻¹
MMP-2; [2]
  Kobs: 585.336 M⁻¹ s⁻¹

## HHPAA-LTASG
MMP-9; [3]
  Kobs: 12792.1 M⁻¹ s⁻¹
MMP-2; [4]
  Kobs: 12792.1 M⁻¹ s⁻¹

## GEIAS-LSTAS
MMP-9; [1]
  Kobs: 84.609 M⁻¹ s⁻¹
MMP-2; [2]
  Kobs: 7386.83 M⁻¹ s⁻¹

## SGALA-LLDTA
MMP-9; [3]
  Kobs: 619.843 M⁻¹ s⁻¹
MMP-2; [4]
  Kobs: 0 M⁻¹ s⁻¹

## VSISF-LTASG
MMP-9; [3]
  Kobs: 654.784 M⁻¹ s⁻¹
MMP-2; [4]
  Kobs: 12792.1 M⁻¹ s⁻¹

## GGSGM-LLMKQ
MMP-9; [3]
  Kobs: 0 M⁻¹ s⁻¹
MMP-2; [4]
  Kobs: 0 M⁻¹ s⁻¹

## SMPRM-LTASG
MMP-9; [3]
  Kobs: 10866.7 M⁻¹ s⁻¹
MMP-2; [4]
  Kobs: 12792.1 M⁻¹ s⁻¹

## GKVHQ-MLTAS
MMP-9; [3]
  Kobs: 27.918 M⁻¹ s⁻¹
MMP-2; [4]
  Kobs: 0 M⁻¹ s⁻¹

## TRMAL-LTASG
MMP-9; [1]
  Kobs: 84.609 M⁻¹ s⁻¹
MMP-2; [2]
  Kobs: 3438.54 M⁻¹ s⁻¹

## GSGMR-LVLRT
MMP-9; [3]
  Kobs: 0 M⁻¹ s⁻¹
MMP-2; [4]
  Kobs: 0 M⁻¹ s⁻¹

## KVLAS-LTASG
MMP-9; [1]
  Kobs: 0 M⁻¹ s⁻¹
MMP-2; [2]
  Kobs: 10866.7 M⁻¹ s⁻¹

## SPALD-MTASG
MMP-9; [1]
  Kobs: 231.616 M⁻¹ s⁻¹
MMP-2; [2]
  Kobs: 0 M⁻¹ s⁻¹

## SGPRS-LSQTA
MMP-9; [1]
  Kobs: 8941.32 M⁻¹ s⁻¹
MMP-2; [2]
  Kobs: 12792.1 M⁻¹ s⁻¹

## SGIWK-LTATA
MMP-9; [3]
  Kobs: 386.839 M⁻¹ s⁻¹
MMP-2; [4]
  Kobs: 0 M⁻¹ s⁻¹

## DILRH-LTASG
MMP-9; [3]
  Kobs: 2409.72 M⁻¹ s⁻¹
MMP-2; [4]
  Kobs: 5889.62 M⁻¹ s⁻¹

## NTFLH-LTASG
MMP-9; [1]
  Kobs: 0 M⁻¹ s⁻¹
MMP-2; [2]
  Kobs: 0 M⁻¹ s⁻¹

## RVPRG-LTASG
MMP-9; [3]
  Kobs: 12792.1 M⁻¹ s⁻¹
MMP-2; [4]
  Kobs: 12792.1 M⁻¹ s⁻¹

## YKAFT-MTASG
MMP-9; [1]
  Kobs: 386.839 M⁻¹ s⁻¹
MMP-2; [2]
  Kobs: 113.394 M⁻¹ s⁻¹

## NDLAH-ITASG
MMP-9; [1]
  Kobs: 0 M⁻¹ s⁻¹
MMP-2; [2]
  Kobs: 10866.7 M⁻¹ s⁻¹

## GGSGP-LHQTK
MMP-9; [1]
  Kobs: 2218.08 M⁻¹ s⁻¹
MMP-2; [2]
  Kobs: 1154.21 M⁻¹ s⁻¹

## GTMMS-LMTAS
MMP-9; [3]
  Kobs: 0 M⁻¹ s⁻¹
MMP-2; [4]
  Kobs: 1763.55 M⁻¹ s⁻¹

## GTIFR-LTASG
MMP-9; [3]
  Kobs: 619.843 M⁻¹ s⁻¹
MMP-2; [4]
  Kobs: 551.253 M⁻¹ s⁻¹

## GPAQD-LYTAS
MMP-9; [1]
  Kobs: 0 M⁻¹ s⁻¹
MMP-2; [2]
  Kobs: 0 M⁻¹ s⁻¹

## VHVHA-LTASG
MMP-9; [3]
  Kobs: 2476.66 M⁻¹ s⁻¹
MMP-2; [4]
  Kobs: 5461.43 M⁻¹ s⁻¹

## SWGLA-LTASG
MMP-9; [3]
  Kobs: 690.17 M⁻¹ s⁻¹
MMP-2; [4]
  Kobs: 619.843 M⁻¹ s⁻¹

## AVTYA-LTASG
MMP-9; [3]
  Kobs: 2837.92 M⁻¹ s⁻¹
MMP-2; [4]
  Kobs: 1071.29 M⁻¹ s⁻¹

## YQTMA-LTASG
MMP-9; [3]
  Kobs: 585.336 M⁻¹ s⁻¹
MMP-2; [4]
  Kobs: 551.253 M⁻¹ s⁻¹

## GISMY-LTASG
MMP-9; [3]
  Kobs: 0 M⁻¹ s⁻¹
MMP-2; [4]
  Kobs: 690.17 M⁻¹ s⁻¹

## AGLDL-LTASG
MMP-9; [3]
  Kobs: 0 M⁻¹ s⁻¹
MMP-2; [4]
  Kobs: 0 M⁻¹ s⁻¹

## GGSGQ-LRREY
MMP-9; [1]
  Kobs: 355.093 M⁻¹ s⁻¹
MMP-2; [2]
  Kobs: 355.093 M⁻¹ s⁻¹

## QRVLP-LTASG
MMP-9; [1]
  Kobs: 2038.8 M⁻¹ s⁻¹
MMP-2; [2]
  Kobs: 6396.07 M⁻¹ s⁻¹

## GSGHR-LMMGT
MMP-9; [1]
  Kobs: 0 M⁻¹ s⁻¹
MMP-2; [2]
  Kobs: 0 M⁻¹ s⁻¹

## HLPTA-LTASG
MMP-9; [3]
  Kobs: 8941.32 M⁻¹ s⁻¹
MMP-2; [4]
  Kobs: 12792.1 M⁻¹ s⁻¹

## EAVGN-LTASG
MMP-9; [1]
  Kobs: 585.336 M⁻¹ s⁻¹
MMP-2; [2]
  Kobs: 12792.1 M⁻¹ s⁻¹

## SGNLA-LKQTA
MMP-9; [3]
  Kobs: 0 M⁻¹ s⁻¹
MMP-2; [4]
  Kobs: 0 M⁻¹ s⁻¹

## QRANS-ITASG
MMP-9; [3]
  Kobs: 0 M⁻¹ s⁻¹
MMP-2; [4]
  Kobs: 551.253 M⁻¹ s⁻¹

## GAPDQ-LSTAS
MMP-9; [1]
  Kobs: 323.705 M⁻¹ s⁻¹
MMP-2; [2]
  Kobs: 142.481 M⁻¹ s⁻¹

## SGPLA-VRTTA
MMP-9; [3]
  Kobs: 12792.1 M⁻¹ s⁻¹
MMP-2; [4]
  Kobs: 12792.1 M⁻¹ s⁻¹

## GGSGA-LREKV
MMP-9; [1]
  Kobs: 292.668 M⁻¹ s⁻¹
MMP-2; [2]
  Kobs: 201.585 M⁻¹ s⁻¹

## KWPER-LTASG
MMP-9; [1]
  Kobs: 1925.41 M⁻¹ s⁻¹
MMP-2; [2]
  Kobs: 2038.8 M⁻¹ s⁻¹

## GRVHR-LSTAS
MMP-9; [3]
  Kobs: 0 M⁻¹ s⁻¹
MMP-2; [4]
  Kobs: 0 M⁻¹ s⁻¹

## GKFAT-LVTAS
MMP-9; [1]
  Kobs: 0 M⁻¹ s⁻¹
MMP-2; [2]
  Kobs: 56.119 M⁻¹ s⁻¹

## GTIAY-LNTAS
MMP-9; [3]
  Kobs: 0 M⁻¹ s⁻¹
MMP-2; [4]
  Kobs: 1870.4 M⁻¹ s⁻¹

## TWAKM-LTASG
MMP-9; [1]
  Kobs: 292.668 M⁻¹ s⁻¹
MMP-2; [2]
  Kobs: 0 M⁻¹ s⁻¹

## SGLYG-LTLTA
MMP-9; [3]
  Kobs: 201.585 M⁻¹ s⁻¹
MMP-2; [4]
  Kobs: 762.325 M⁻¹ s⁻¹

## SGFSE-LTLTA
MMP-9; [3]
  Kobs: 0 M⁻¹ s⁻¹
MMP-2; [4]
  Kobs: 0 M⁻¹ s⁻¹

## SGPAP-LVLTA
MMP-9; [3]
  Kobs: 6688.74 M⁻¹ s⁻¹
MMP-2; [4]
  Kobs: 12792.1 M⁻¹ s⁻¹

## TTSAS-LTASG
MMP-9; [1]
  Kobs: 171.876 M⁻¹ s⁻¹
MMP-2; [2]
  Kobs: 3165.09 M⁻¹ s⁻¹

## GSGAW-LKKIT
MMP-9; [3]
  Kobs: 0 M⁻¹ s⁻¹
MMP-2; [4]
  Kobs: 0 M⁻¹ s⁻¹

## GRAQN-LLTAS
MMP-9; [3]
  Kobs: 1071.29 M⁻¹ s⁻¹
MMP-2; [4]
  Kobs: 484.315 M⁻¹ s⁻¹

## HLVAW-LTASG
MMP-9; [3]
  Kobs: 10866.7 M⁻¹ s⁻¹
MMP-2; [4]
  Kobs: 10866.7 M⁻¹ s⁻¹

## MFHLN-ITASG
MMP-9; [3]
  Kobs: 690.17 M⁻¹ s⁻¹
MMP-2; [4]
  Kobs: 1373.05 M⁻¹ s⁻¹
